The record followed here is BindingDB's records for patent US12479845 (Hanmi Pharm. Co., 2025).

This assay has as its target Lysine-specific histone demethylase 1A (Homo sapiens, UniProt O60341). The assay is described as follows: Biochemical Analysis of LSD1 Histone Demethylase Inhibitor. As for the experimental part: The biochemical inhibition activity of the synthesized compounds on LSD1 was measured. The activity measurement was performed using LSD1 fluorescence analysis kit (available from BPS Bioscience Co., Ltd., Catalog No: 50106). This analysis kit is designed to measure activity of LSD1 enzyme. H2O2 generated upon demethylation of Lys4 moiety of histone H3 by LSD1 is reacted with HRP/Amplex Red reagent to form fluorescent Resorufin, which is measured by this kit, thereby confirming demethylation.

By IC50 is commonly meant the concentration needed to halve the response being measured. Lower therefore signals higher potency. In turn, `CCN(CC)c1ccc(-n2c(-c3ccc(C#N)c(F)c3)nc3c(N4CCC[C@@H](N)C4)ccnc32)cc1` [US12479845, Example 21] displayed an IC50 of 27 nM.
